Converted amounts (≈) assume the structure as drawn.
How the values were obtained:
Test in all cases: In vitro minimum inhibitory concentration (MIC) test
Assay type in all cases: cell-based
Settings in all cases: RPMI 1640, 35° C., 24-48 h, 485 nm, lowest concentration inhibiting growth more than 80%
Aspergillus flavus = test system: Aspergillus flavus
Experimental: (§1) Example 20: In Vtro Minimum Inhibitory Concentration (MIC) Test Strains used in the experiment are inoculated on Sabouraud glucose agar culture medium and cultured at 35° C. for 5 d; then 1 mL of 0.2% Tween diluted with 0.85% sterile normal saline is added into Sabouraud dextrose agar culture medium, and plate is shaken, before solution collected from plate surface is transferred into sterile tube, and fungus containing supernatant is transferred into sterile tube in full suspension so as to prepare strain diluent with concentration from 0.4*10^6 to 5*10^6 CFU/mL. Strain diluent prepared herein is diluted into RPMI 1640 culture medium in a ratio of 1:100. Such biological suspension is added into hole on the plate which contains drug diluent; all plates are incubated at 35° C. for 24-48 h, and light in wavelength of 485 nm is monitored for each hole to evaluate strain growth. MIC of compound is defined as follows: Compared with negative control free of drug, the lowest drug concentration able to inhibit growth for more than 80% of strains. A indicates MIC value>0.1 μg/mL, B indicates 0.1 μg/mL≥MIC value>0.01 μg/mL, and C indicates MIC value<0.01 μg/mL.

Aspergillus terreus = test system: Aspergillus terreus
Experimental: as §1

Aspergillus niger = test system: Aspergillus niger
Experimental: as §1

Aspergillus fumigatus = test system: Aspergillus fumigatus
Experimental: as §1

Row | SMILES | MIC (Aspergillus flavus) [µg/mL] | MIC (Aspergillus terreus) [µg/mL] | MIC (Aspergillus niger) [µg/mL] | MIC (Aspergillus fumigatus) [µg/mL]
1 | COCCn1c(C)cc(-c2ccccc2)c1C(=O)C(=O)Nc1ccc2c(c1)OCC1CN(c3ncc(F)cn3)CCN21 (stereo not drawn) [Example 16] | < 0.01 | < 0.01 | < 0.01 | 0.01 to 0.1 (≈ 0.0175 to 0.175 µM)
2 | Cc1cc(C)nc(N2CCN3c4ccc(NC(=O)C(=O)c5c(-c6ccccc6)cc(C)n5C)cc4N(C)C[C@@H]3C2)c1 [Example 13-A] | 0.01 to 0.1 (≈ 0.0182 to 0.182 µM) | < 0.01 | 0.01 to 0.1 (≈ 0.0182 to 0.182 µM) | < 0.01
3 | Cc1cc(C)nc(N2CCN3c4ccc(NC(=O)C(=O)c5c(-c6ccccc6)cc(C)n5C)cc4OCC3C2)c1 (stereo not drawn) [Example 2] | < 0.01 | < 0.01 | < 0.01 | < 0.01
4 | Cc1cc(C)nc(N2CCN3c4ccc(NC(=O)C(=O)c5c(-c6ccccc6)cc(C)n5C)cc4OC[C@H]3C2)c1 [Example 2-B] | < 0.01 | < 0.01 | < 0.01 | < 0.01
5 | Cc1cc(C)nc(N2CCN3c4ccc(NC(=O)C(=O)c5c(-c6ccccc6)cc(C)n5C)cc4N(C)C[C@H]3C2)c1 [Example 13-B] | 0.01 to 0.1 (≈ 0.0182 to 0.182 µM) | < 0.01 | 0.01 to 0.1 (≈ 0.0182 to 0.182 µM) | < 0.01
6 | Cc1cc2c(cc1NC(=O)C(=O)c1c(-c3ccccc3)cc(C)n1C)OCC1CN(c3ncc(F)cn3)CCN21 (stereo not drawn) [Example 10] | 0.01 to 0.1 (≈ 0.0185 to 0.185 µM) | 0.01 to 0.1 (≈ 0.0185 to 0.185 µM) | 0.01 to 0.1 (≈ 0.0185 to 0.185 µM) | 0.01 to 0.1 (≈ 0.0185 to 0.185 µM)
7 | Cc1cc(-c2ccccc2)c(C(=O)C(=O)Nc2ccc3c(c2)OC[C@H]2CN(c4ncc(F)cn4)CCN32)n1C [Example 1-B] | < 0.01 | < 0.01 | < 0.01 | < 0.01
8 | Cc1cc(-c2ccccc2)c(C(=O)C(=O)Nc2ccc3c(c2)OC[C@@H]2CN(c4ncc(F)cn4)CCN32)n1C [Example 1-A] | < 0.01 | < 0.01 | < 0.01 | < 0.01

Results, then the molecule that gave them:

Row | MIC (Aspergillus flavus) [µg/mL] | MIC (Aspergillus terreus) [µg/mL] | MIC (Aspergillus niger) [µg/mL] | MIC (Aspergillus fumigatus) [µg/mL] | SMILES
9 | < 0.01 | < 0.01 | < 0.01 | < 0.01 | Cc1cc(-c2ccccc2)c(C(=O)C(=O)Nc2ccc3c(c2)N(C)C[C@H]2CN(c4ncc(F)cn4)CCN32)n1C [Example 12-B]
10 | < 0.01 | < 0.01 | < 0.01 | < 0.01 | Cc1cc(-c2ccccc2)c(C(=O)C(=O)Nc2ccc3c(c2)N(C)C[C@@H]2CN(c4ncc(F)cn4)CCN32)n1C [Example 12-A]
11 | < 0.01 | < 0.01 | < 0.01 | < 0.01 | Cc1cc(-c2ccccc2)c(C(=O)C(=O)Nc2ccc3c(c2)OCC2CN(c4ncc(F)cn4)CCN32)n1C (stereo not drawn) [Example 1]
12 | > 0.1 | > 0.1 | > 0.1 | > 0.1 | CCC(C)n1ncn(-c2ccc(N3CCN(c4ccc(OCC5COC(Cn6cncn6)(c6ccc(Cl)cc6Cl)O5)cc4)CC3)cc2)c1=O (stereo not drawn) [Itraconazole, reference compound]
13 | < 0.01 | < 0.01 | < 0.01 | < 0.01 | Cc1cc(-c2ccccc2)c(C(=O)C(=O)Nc2cc3c(cc2F)N2CCN(c4ncc(F)cn4)CC2CO3)n1C (stereo not drawn) [Example 9]
14 | 0.01 to 0.1 (≈ 0.0182 to 0.182 µM) | < 0.01 | 0.01 to 0.1 (≈ 0.0182 to 0.182 µM) | < 0.01 | Cc1cc(C)nc(N2CCN3c4ccc(NC(=O)C(=O)c5c(-c6ccccc6)cc(C)n5C)cc4N(C)CC3C2)c1 (stereo not drawn) [Example 13]
15 | < 0.01 | < 0.01 | 0.01 to 0.1 (≈ 0.0185 to 0.185 µM) | < 0.01 | CCn1c(C)cc(-c2ccccc2)c1C(=O)C(=O)Nc1ccc2c(c1)OCC1CN(c3ncc(F)cn3)CCN21 (stereo not drawn) [Example 14]
16 | 0.01 to 0.1 (≈ 0.02 to 0.2 µM) | < 0.01 | 0.01 to 0.1 (≈ 0.02 to 0.2 µM) | < 0.01 | Cc1cc(-c2ccccc2)c(C(=O)C(=O)Nc2ccc3c(c2)OCC2CN(CC(C)(C)C)CCN32)n1C (stereo not drawn) [Example 8]
17 | 0.01 to 0.1 (≈ 0.0185 to 0.185 µM) | < 0.01 | 0.01 to 0.1 (≈ 0.0185 to 0.185 µM) | < 0.01 | Cc1cc(-c2ccccc2)c(C(=O)C(=O)Nc2ccc3c(c2)N(C)CC2CN(c4ncc(F)cn4)CCN32)n1C (stereo not drawn) [Example 12]
18 | < 0.01 | < 0.01 | < 0.01 | < 0.01 | Cc1cc(C)nc(N2CCN3c4ccc(NC(=O)C(=O)c5c(-c6ccccc6)cc(C)n5C)cc4OC[C@@H]3C2)c1 [Example 2-A]

— patent US12497397B2, “Pyrrole compounds useful as antifungals” (WIGEN BIOMEDICINE TECHNOLOGY (SHANGHAI) CO., LTD., priority 2019, dated 2025)
